Results published in patent US20230203060A1 (GENFLEET THERAPEUTICS (SHANGHAI) INC., priority 2020, published 2023).

Columns and labels:
[1] = tested on: A549 cells (KRAS G12S mutant); test: Cell proliferation inhibition experiment, 3D spheroid, CellTiter-Glo, A549; assay type: cell-based, human; conditions: Homo sapiens, A549, 120 h, A549 (KRAS G12S mutant) 3D spheroid, 5 days with compound, CellTiter-Glo; read-out: A549 IC50
Procedure, shortened: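 Cells seeded in 2% FBS medium in spheroid plates (800 H358 or 400 A549 per well), grown overnight to form 3D spheroids, then exposed to 3.16-fold compound dilutions (0.1% DMSO) for 5 days. CellTiter-Glo luminescence gave inhibition vs DMSO and medium blanks; IC50 by four-parameter fit.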

[2] = tested on: KRAS G12C mutant MIA PaCa-2 cells; test: Cell proliferation inhibition experiment, 3D spheroid, CellTiter-Glo, MIA PaCa-2; assay type: cell-based, human; conditions: Homo sapiens, MIA PaCa-2, 120 h, 3D cell model in 384-well spheroid plate, 5 days, CellTiter-Glo; read-out: MIA-PaCa2 IC50
Procedure, shortened: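 200 MIA PaCa-2 cells/well grown overnight as 3D spheroids, then exposed to 3.16-fold compound dilutions (0.1% DMSO final) for 5 days. Viability read by CellTiter-Glo luminescence; inhibition calculated against DMSO and medium-only controls, and IC50 fitted by four-parameter model.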

SMILES	IC50 [1]	IC50 [2]
C=CC(=O)N1CCN2C(=O)c3c(N4C[C@@H](N5CCOCC5)CC4(C)C)nc(-c4c(O)cccc4F)c(Cl)c3OC[C@H]2C1 (single isomer, unassigned) [Z297-2]	8700 nM	3 nM
C=CC(=O)N1CCN2C(=O)c3c(N4CC[C@@H](N(C)C)C4(C)C)nc(-c4c(O)cccc4F)c(Cl)c3OC[C@H]2C1 (single isomer, unassigned) [Z360-1]	2530 nM	19.6 nM
C=CC(=O)N1CCN2C(=O)c3c(N4C[C@H](N5CCOCC5)CC4(C)C)nc(-c4c(O)cccc4F)c(Cl)c3OC[C@H]2C1 (single isomer, unassigned) [Z297-1]	7000 nM	3 nM
C=CC(=O)N1CCN2C(=O)c3c(N4CCN(CC)C(C)(C)C4)nc(-c4c(O)cccc4F)c(Cl)c3OC[C@H]2C1 [Z322, (6aR)-8-actyloyl-4-chloro-3-(2-fluoro-6-hydroxyphenyl)-1-(4-ethyl-3,3-dimethylpiperazin-1-yl)-6,6a,7,8,9,10-hexahydro-12H-pyrazino[2,1-c]pyrido[3,4-f][1,4]oxazepin-12-one]	10700 nM	6.3 nM
C=CC(=O)N1CCN2C(=O)c3c(N4CCO[C@](C)(CO)C4)nc(-c4c(O)cccc4F)c(Cl)c3OC[C@H]2C1 (single isomer, unassigned) [Z333-1]	> 30000 nM	30 nM
C=CC(=O)N1CCN2C(=O)c3c(N4C[C@H](OC)C[C@@H]4C)nc(-c4c(O)cccc4F)c(Cl)c3OC[C@H]2C1 [Z259a, (6aR)-8-acryloyl-4-chloro-3-(2-fluoro-6-hydroxyphenyl)-1-((2S,4R)-4-methoxy-2-methylpyrrolidin-1-yl)-6,6a,7,8,9,10-hexahydro-12H-pyrazino[2,1-c]pyrido[3,4-f][1,4]oxazepin-12-one]	9120 nM	4.4 nM

The next lines start with the values.

IC50 [1]	IC50 [2]	SMILES
> 10000 nM	7.2 nM	C=CC(=O)N1CCN2C(=O)c3c(N4C[C@@H](N(C)CCOC)C[C@@H]4C)nc(-c4c(O)cccc4F)c(Cl)c3OC[C@H]2C1 [Z358-1]
> 10000 nM	6 nM	C=CC(=O)N1CCN2C(=O)c3c(N4CC[C@H](N(C)C)C4(C)C)nc(-c4c(O)cccc4F)c(Cl)c3OC[C@H]2C1 (single isomer, unassigned) [Z360-2]
12200 nM	17.6 nM	C=CC(=O)N1CCN2C(=O)c3c(N4C[C@@H](OC)C[C@@H]4C)nc(-c4c(O)cccc4F)c(F)c3OC[C@H]2C1 [Z359-1, (6aR)-8-actyloyl-4-fluoro-3-(2-fluoro-6-hydroxyphenyl)-1-((2S,4S)-4-methoxy-2-methylpyrrolidin-1-yl)-6,6a,7,8,9,10-hexahydro-12H-pyrazino[2,1-c]pyrido[3,4-f][1,4]oxazepin-12-one]
> 30000 nM	2.2 nM	C=CC(=O)N1CCN2C(=O)c3c(N4CCN(C(=O)CC)C[C@@H]4C)nc(-c4c(O)cccc4F)c(Cl)c3OC[C@H]2C1 [Z316-1, (6aR)-8-acryloyl-4-chloro-3-(2-fluoro-6-hydroxyphenyl)-1-((S)-2-methyl-4-propionylpiperazin-1-yl)-6,6a,7,8,9,10-hexahydro-12H-pyrazino[2,1-c]pyrido[3,4-f][1,4]oxazepin-12-one]
2080 nM	1 nM	C=CC(=O)N1CCN2C(=O)c3c(N4C[C@H](OC)CC4(C)C)nc(-c4c(O)cccc4F)c(Cl)c3OC[C@H]2C1 (single isomer, unassigned) [Z244-2]
3790 nM	8 nM	C=CC(=O)N1CCN2C(=O)c3c(N4C[C@H](N(C)CCOC)CC4(C)C)nc(-c4c(O)cccc4F)c(Cl)c3OC[C@H]2C1 (single isomer, unassigned) [Z296-2]
3100 nM	1.5 nM	C=CC(=O)N1CCN2C(=O)c3c(N4C[C@@](C)(O)CC4(C)C)nc(-c4c(O)cccc4F)c(Cl)c3OC[C@H]2C1 (single isomer, unassigned) [Z243-1]
